From patent US20180298010A1, “PRMT5 INHIBITORS AND USES THEREOF” (Epizyme, Inc., priority 2012, published 2018)
pIC50: −log10 of the molar value.

Target: T1, PRMT5/MEP50 (Homo sapiens, UniProt O14744)
T1 construct: Flag-PRMT5; 6His-MEP50
Test: PRMT5 Biochemical Assay (PRMT5/MEP50 enzyme assay on peptide substrate, 3H-SAM Flashplate)
Text: General Materials. S-adenosylmethionine (SAM), S-adenosylhomocysteine (SAH), bicine, KCl, Tween20, dimethylsulfoxide (DMSO), bovine skin gelatin (BSG), and Tris(2-carboxyethyl)phosphine hydrochloride solution (TCEP) were purchased from Sigma-Aldrich at the highest level of purity possible. ^3H-SAM was purchase from American Radiolabeled Chemicals with a specific activity of 80 Ci/mmol. 384-well streptavidin Flashplates were purchased from PerkinElmer.
Substrates. Peptide representative of human histone H4 residues 1-15 was synthesized with a C-terminal linker-affinity tag motif and a C-terminal amide cap by 21st Century Biochemicals. The peptide was high high-perfomance liquid chromatography (HPLC) purified to greater than 95% purity and confirmed by liquid chromatography mass spectrometry (LC-MS). The sequence was Ac-[…][K-Biot]-amide (SEQ ID NO.:3).
Molecular Biology: Full-length human PRMT5 (NM_006109.3) transcript variant 1 clone was amplified from a fetal brain cDNA library, incorporating flanking 5′ sequence encoding a FLAG tag ([…]) (SEQ ID NO.:4) fused directly to Ala 2 of PRMT5. Full-length human MEP50 (NM_024102) clone was amplified from a human testis cDNA library incorporating a 5′ sequence encoding a 6-histidine tag (MHHHHHH) (SEQ ID NO.:5) fused directly to Arg 2 of MEP50. The amplified genes were sublconed into pENTR/D/TEV (Life Technologies) and subsequently transferred by Gateway™ attL×attR recombination to pDEST8 baculvirus expression vector (Life Technologies).
Protein Expression. Recombinant baculovirus and Baculovirus-Infected Insect Cells (BIIC) were generated according to Bac-to-Bac kit instructions (Life Technologies) and Wasilko, 2006, respectively. Protein over-expression was accomplished by infecting exponentially growing Spodoptera frugiperda (SF9) cell culture at 1.2×10^6cell/ml with a 5000 fold dilution of BIIC stock. Infections were carried out at 27° C. for 72 hours, harvested by centrifugation, and stored at −80° C. for purification.
Protein Purification. […] Flag-PRMT5/6His-MeP50 was eluted with 300 mM Imidazole in the same buffer. The purity of recovered protein was 87%. Reference: Wasilko, D. J. and S. E. Lee: “TIPS: titerless infected-cells preservation and scale-up” Bioprocess J., 5 (2006), pp. 29-32.
General Procedure for PRMT5/MEP50 Enzyme Assays on Peptide Substrates. The assays were all performed in a buffer consisting of 20 mM Bicine (pH=7.6), 1 mM TCEP, 0.005% BSG, and 0.002% Tween20, prepared on the day of use. Compounds in 100% DMSO (1 ul) were spotted into a polypropylene 384-well V-bottom plates (Greiner) using a Platemate Plus outfitted with a 384-channel head (Thermo Scientific). DMSO (1 ul) was added to Columns 11, 12, 23, 24, rows A-H for the maximum signal control and 1 ul of SAH, a known product and inhibitor of PRMT5/MEP50, was added to columns 11, 12, 23, 24, rows I-P for the minimum signal control. A cocktail (40 ul) containing the PRMT5/MEP50 enzyme and the peptide was added by Multidrop Combi (Thermo-Fisher). The compounds were allowed to incubate with PRMT5/MEP50 for 30 min at 25 degrees Celsius, then a cocktail (10 ul) containing ^3H-SAM was added to initiate the reaction (final volume=51 ul). The final concentrations of the components were as follows: PRMT5/MEP50 was 4 nM, ^3H-SAM was 75 nM, peptide was 40 nM, SAH in the minimum signal control wells was 100 uM, and the DMSO concentration was […]. The assays were stopped by the addition of non-radioactive SAM (10 ul) to a final concentration of 600 uM, which dilutes the ^3H-SAM to a level where its incorporation into the peptide substrate is no longer detectable. 50 ul of the reaction in the 384-well polypropylene plate was then transferred to a 384-well Flashplate and the biotinylated peptides were allowed to bind to the streptavidin surface for at least 1 hour before being washed three times with 0.1% Tween20 in a Biotek ELx405 plate washer. […]

T1 sequence (O14744 with tags, fused parts or gaps): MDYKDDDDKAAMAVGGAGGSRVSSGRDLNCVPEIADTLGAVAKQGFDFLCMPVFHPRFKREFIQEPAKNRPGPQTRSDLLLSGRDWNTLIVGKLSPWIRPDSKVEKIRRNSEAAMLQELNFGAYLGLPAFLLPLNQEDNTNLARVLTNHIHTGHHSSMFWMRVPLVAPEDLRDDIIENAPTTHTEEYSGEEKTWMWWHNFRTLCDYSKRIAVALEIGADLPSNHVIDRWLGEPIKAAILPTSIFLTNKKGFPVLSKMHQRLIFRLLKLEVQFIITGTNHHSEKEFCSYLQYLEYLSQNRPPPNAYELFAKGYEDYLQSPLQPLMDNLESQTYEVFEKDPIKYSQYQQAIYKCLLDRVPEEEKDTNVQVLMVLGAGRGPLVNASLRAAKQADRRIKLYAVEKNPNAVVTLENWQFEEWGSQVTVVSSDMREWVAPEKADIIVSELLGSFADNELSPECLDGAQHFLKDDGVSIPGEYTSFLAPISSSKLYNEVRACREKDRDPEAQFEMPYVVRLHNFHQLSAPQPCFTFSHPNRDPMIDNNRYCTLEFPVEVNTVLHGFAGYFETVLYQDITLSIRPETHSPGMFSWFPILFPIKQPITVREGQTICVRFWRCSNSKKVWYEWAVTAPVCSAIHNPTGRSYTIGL
T1 sequence (Q9BQA1 with tags, fused parts or gaps partner): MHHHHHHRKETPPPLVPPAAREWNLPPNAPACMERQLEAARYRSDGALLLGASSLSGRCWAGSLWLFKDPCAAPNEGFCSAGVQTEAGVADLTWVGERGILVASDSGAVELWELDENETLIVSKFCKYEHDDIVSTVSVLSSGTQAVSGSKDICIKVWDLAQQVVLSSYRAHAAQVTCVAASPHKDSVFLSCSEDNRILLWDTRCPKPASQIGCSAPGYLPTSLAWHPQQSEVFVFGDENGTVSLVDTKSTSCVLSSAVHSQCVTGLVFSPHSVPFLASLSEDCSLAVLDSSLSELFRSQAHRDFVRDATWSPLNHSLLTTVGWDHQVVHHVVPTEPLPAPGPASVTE

| pIC50 | SMILES |
| --- | --- |
| 6.00 to 7.00 | OC(COc1cccc(CNC2CCCC2)c1)CN1CCc2ccccc2C1 (centres unmarked) [Compound 1] |
| 5.00 to 6.00 | OC(COC1CCCN(c2ccccc2)C1)CN1CCc2ccccc2C1 (centres unmarked) [Compound 2] |
| 6.00 to 7.00 | OC(COc1ccc(OCC(O)CN2CCc3ccccc3C2)cc1)CN1CCc2ccccc2C1 (centres unmarked) [Compound 3] |
| 6.00 to 7.00 | OC(COc1cccc(CNC2CCCCC2)c1)CN1CCc2ccccc2C1 (centres unmarked) [Compound 4] |
| 6.00 to 7.00 | OC(COc1cccc(CNC2CCOCC2)c1)CN1CCc2ccccc2C1 (centres unmarked) [Compound 5, 1-(3,4-dihydroisoquinolin-2(1H)-yl)-3-(3-(((tetrahydro-2H-pyran-4-yl)amino)methyl)phenoxy)propan-2-ol] |
| 6.00 to 7.00 | OC(COc1cccc(CNc2cc[nH]n2)c1)CN1CCc2ccccc2C1 (centres unmarked) [Compound 6, 1-(3-(((1H-pyrazol-3-yl)amino)methyl)phenoxy)-3-(3,4-dihydroisoquinolin-2(1H)-yl)propan-2-ol] |
| 5.00 to 6.00 | OC(COc1ccccc1C1CCCCC1)CN1CCc2ccccc2C1 (centres unmarked) [Compound 8] |
| 5.00 to 6.00 | OC(COc1ccc(-n2cncn2)cc1)CN1CCc2ccccc2C1 (centres unmarked) [Compound 9] |
| 6.00 to 7.00 | OC(COc1ccc(Cc2ccccc2)cc1)CN1CCc2ccccc2C1 (centres unmarked) [Compound 10] |
| 6.00 to 7.00 | OC(COCc1cc(-c2ccc(Cl)cc2)no1)CN1CCc2ccccc2C1 (centres unmarked) [Compound 11] |
| 5.00 to 6.00 | OC(COCc1ccc(OCc2ccccc2)cc1)CN1CCc2ccccc2C1 (centres unmarked) [Compound 12] |
| 5.00 to 6.00 | OC(COc1cccc(CNC2CCNCC2)c1)CN1CCc2ccccc2C1 (centres unmarked) [Compound 13] |
| 5.00 to 6.00 | OC(COc1cccc(CN2CCCCC2)c1)CN1CCc2ccccc2C1 (centres unmarked) [Compound 14] |
| 5.00 to 6.00 | OC(COc1cccc2ccc(N3CCOCC3)nc12)CN1CCc2ccccc2C1 (centres unmarked) [Compound 15] |
| 5.00 to 6.00 | OC(COc1ccccc1-c1ccno1)CN1CCc2ccccc2C1 (centres unmarked) [Compound 16] |
| 6.00 to 7.00 | Cc1cc(OCC(O)CN2CCc3ccccc3C2)c(C)cc1CN1CCOCC1 (centres unmarked) [Compound 17] |
| 5.00 to 6.00 | O=S1(=O)CCN(c2ccc(OCC(O)CN3CCc4ccccc4C3)cc2)CC1 (centres unmarked) [Compound 18] |
| 5.00 to 6.00 | OC(COc1ccc(OCc2ccccc2)cc1)CN1CCc2ccccc2C1 (centres unmarked) [Compound 19] |
| 5.00 to 6.00 | OC(COc1cccc(OCc2ccccc2)c1)CN1CCc2ccccc2C1 (centres unmarked) [Compound 20] |
| 5.00 to 6.00 | OC(COC1CCN(Cc2ccccc2)CC1)CN1CCc2ccccc2C1 (centres unmarked) [Compound 21] |
| 5.00 to 6.00 | CN(Cc1ccc(OCC(O)CN2CCc3ccccc3C2)cc1)C1CCCC1 (centres unmarked) [Compound 24] |
| 5.00 to 6.00 | OC(COc1ccc(C2CCNCC2)cc1)CN1CCc2ccccc2C1 (centres unmarked) [Compound 25] |
| 4.40 to 5.00 | CC(C)n1nccc1-c1ccc(OCC(O)CN2CCc3ccccc3C2)cc1 (centres unmarked) [Compound 26] |
| 5.00 to 6.00 | CC(C)n1ccc(-c2ccc(OCC(O)CN3CCc4ccccc4C3)cc2)n1 (centres unmarked) [Compound 27] |
| 5.00 to 6.00 | Cc1nn(-c2ccccc2)c(C)c1COCC(O)CN1CCc2ccccc2C1 (centres unmarked) [Compound 28] |
| 4.40 to 5.00 | COc1cccc2c1CN(CC(O)COc1cccc(CNC3CCCC3)c1)CC2 (centres unmarked) [Compound 29] |
| 6.00 to 7.00 | O=C(c1ccc(Cn2nccc2-c2ccc(OCC(O)CN3CCc4ccccc4C3)cc2)cc1)N1CCCC1 (centres unmarked) [Compound 31, (4-((5-(4-(3-(3,4-dihydroisoquinolin-2(1H)-yl)-2-hydroxypropoxy)phenyl)-1H-pyrazol-1-yl)methyl)phenyl)(pyrrolidin-1-yl)methanone] |
| 5.00 to 6.00 | COC(COc1cccc(CNC2CCCC2)c1)CN1CCc2ccccc2C1 (centres unmarked) [Compound 32] |

| pIC50 | SMILES |
| --- | --- |
| 5.00 to 6.00 | CC(C(O)COc1cccc(CNC2CCCC2)c1)N1CCc2ccccc2C1 (centres unmarked) [Compound 33] |
| 5.00 to 6.00 | O=C(c1ccc(Cn2ccc(-c3ccc(OCC(O)CN4CCc5ccccc5C4)cc3)n2)cc1)N1CCCC1 (centres unmarked) [Compound 34] |
| 5.00 to 6.00 | OC(COC1CCN(Cc2ccccc2)C1)CN1CCc2ccccc2C1 (centres unmarked) [Compound 35] |
| 4.40 to 5.00 | OC(CCc1cccc(CNC2CCCC2)c1)CN1CCc2ccccc2C1 (centres unmarked) [Compound 36] |
| 6.00 to 7.00 | OC(CNc1cccc(CNC2CCCC2)c1)CN1CCc2ccccc2C1 (centres unmarked) [Compound 39, 1-((3-((cyclopentylamino)methyl)phenyl)amino)-3-(3,4-dihydroisoquinolin-2(1H)-yl)propan-2-ol] |
| 5.00 to 6.00 | OC(COc1cccc(-c2cccnc2)c1)CN1CCc2ccccc2C1 (centres unmarked) [Compound 40] |
| 6.00 to 7.00 | OC(COc1cccc(-c2ccccc2)c1)CN1CCc2ccccc2C1 (centres unmarked) [Compound 43, 1-([1,1′-biphenyl]-3-yloxy)-3-(3,4-dihydroisoquinolin-2(1H)-yl) propan-2-ol] |
| 5.00 to 6.00 | Cn1cc(-c2cccc(OCC(O)CN3CCc4ccccc4C3)c2)cn1 (centres unmarked) [Compound 44] |
| 5.00 to 6.00 | OC(COCc1ccc(CN2CCOCC2)cc1)CN1CCc2ccccc2C1 (centres unmarked) [Compound 46] |
| 5.00 to 6.00 | OC(COc1ccc(-c2ccn[nH]2)cc1)CN1CCc2ccccc2C1 (centres unmarked) [Compound 48] |
| 6.00 to 7.00 | CC(Oc1cccc(CNC2CCCC2)c1)C(O)CN1CCc2ccccc2C1 (centres unmarked) [Compound 49] |
| 5.00 to 6.00 | CC1c2ccccc2CCN1CC(O)COc1cccc(CNC2CCCC2)c1 (centres unmarked) [Compound 50] |
| 5.00 to 6.00 | OC(COc1cccc(C2CCCCC2)c1)CN1CCc2ccccc2C1 (centres unmarked) [Compound 52] |
| 6.00 to 7.00 | CN(CC(O)CN1CCc2ccccc2C1)c1cccc(CNC2CCCC2)c1 (centres unmarked) [Compound 53] |
| 5.00 to 6.00 | OC(COc1cccc(-c2cccc(Oc3ccccc3)c2)c1)CN1CCc2ccccc2C1 (centres unmarked) [Compound 55] |
| 5.00 to 6.00 | OC(COc1cccc(C2=CCCCC2)c1)CN1CCc2ccccc2C1 (centres unmarked) [Compound 57] |
| 6.00 to 7.00 | Cn1cnc2cc(-c3cccc(OCC(O)CN4CCc5ccccc5C4)c3)ccc21 (centres unmarked) [Compound 60, 1-(3,4-dihydroisoquinolin-2(1H)-yl)-3-(3-(1-methyl-1H-benzo[d]imidazol-5-yl)phenoxy)propan-2-ol] |
| 6.00 to 7.00 | OC(COc1cccc(-c2cc(C(F)(F)F)ccc2Cl)c1)CN1CCc2ccccc2C1 (centres unmarked) [Compound 62, 1-((2′-chloro-5′-(trifluoromethyl)-[1,1′-biphenyl]-3-yl)oxy)-3-(3,4-dihydroisoquinolin-2(1H)-yl)propan-2-ol] |
| 6.00 to 7.00 | CS(=O)(=O)c1ccc(-c2cccc(OCC(O)CN3CCc4ccccc4C3)c2)cc1 (centres unmarked) [Compound 63] |
| 5.00 to 6.00 | COc1ccc(Cl)c(-c2cccc(OCC(O)CN3CCc4ccccc4C3)c2)c1 (centres unmarked) [Compound 64] |
| 6.00 to 7.00 | Cn1cnc2ccc(N3CCCC(OCC(O)CN4CCc5ccccc5C4)C3)cc21 (centres unmarked) [Compound 66] |
| 6.00 to 7.00 | CC(=O)c1cccc(-c2cccc(OCC(O)CN3CCc4ccccc4C3)c2)c1 (centres unmarked) [Compound 67] |
| 5.00 to 6.00 | OC(COc1cccc(-c2ccc(Cl)cc2)c1)CN1CCc2ccccc2C1 (centres unmarked) [Compound 69] |
| 5.00 to 6.00 | Oc1ccc(-c2cccc(OCC(O)CN3CCc4ccccc4C3)c2)cc1F (centres unmarked) [Compound 70] |
| 5.00 to 6.00 | COc1ccccc1-c1cccc(OCC(O)CN2CCc3ccccc3C2)c1 (centres unmarked) [Compound 71] |
| 6.00 to 7.00 | OCc1cccc(-c2cccc(OCC(O)CN3CCc4ccccc4C3)c2)c1 (centres unmarked) [Compound 72, 1-(3,4-dihydroisoquinolin-2(1H)-yl)-3-((3′-(hydroxymethyl)-[1,1′-biphenyl]-3-yl)oxy)propan-2-ol] |
| 5.00 to 6.00 | OCc1ccc(-c2cccc(OCC(O)CN3CCc4ccccc4C3)c2)cc1 (centres unmarked) [Compound 73] |

| SMILES | pIC50 |
| --- | --- |
| OC(COc1ccccc1N1CCNCC1)CN1CCc2ccccc2C1 (centres unmarked) [Compound 7] | 4.40 to 5.00 |
